Measured values taken from publication PMC8587043, “An Investigation into the Interaction between Double Hydroxide-Based Antioxidant Benzophenone Derivatives and Cyclooxygenase 2” (Molecules, 2021).

Columns and labels:
COX2 [1] = target: T1, COX2 (Homo sapiens, UniProt P35354); experiment: Three-dimensional fluorescence spectroscopy of COX2-compound systems; format: binding; details: for Peak Position λex/λem, peak 2 / Relative Intensity (I), peak 2 / Relative Intensity (I), peak 1: compound 4.50 × 10^−5 mol∙L^−1, 298 K; for Relative Intensity (I), peak 2: COX2 alone 775; for Relative Intensity (I), peak 1: COX2 alone 874
T1 construct: purchased Sino Biological Co. (Beijing, China)
T1 sequence (P35354 18-604): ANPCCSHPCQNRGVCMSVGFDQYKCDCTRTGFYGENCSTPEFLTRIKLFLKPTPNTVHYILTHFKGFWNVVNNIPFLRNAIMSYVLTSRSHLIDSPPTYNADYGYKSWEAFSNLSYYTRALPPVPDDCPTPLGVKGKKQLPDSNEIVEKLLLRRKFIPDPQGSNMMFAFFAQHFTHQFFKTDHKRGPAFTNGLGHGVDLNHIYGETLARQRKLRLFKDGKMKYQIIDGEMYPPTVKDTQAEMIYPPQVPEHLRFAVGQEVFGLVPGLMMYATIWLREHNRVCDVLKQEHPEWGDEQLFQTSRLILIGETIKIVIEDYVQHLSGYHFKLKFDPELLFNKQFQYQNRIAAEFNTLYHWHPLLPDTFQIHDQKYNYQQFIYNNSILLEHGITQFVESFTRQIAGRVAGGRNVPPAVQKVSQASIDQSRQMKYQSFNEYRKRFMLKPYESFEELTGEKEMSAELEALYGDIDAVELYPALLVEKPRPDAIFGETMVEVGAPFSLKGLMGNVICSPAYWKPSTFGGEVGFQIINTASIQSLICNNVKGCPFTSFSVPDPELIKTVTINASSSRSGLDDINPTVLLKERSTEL
Text: Three-dimensional fluorescence spectroscopy can reflect the microenvironment of related fluorophores. It was employed to study the structural changes of COX2 before and after binding. Peak 1 and peak 2 were maintained at 272/338 nm and 230/337 nm, respectively. […] Peak 2 reflected the fluorescence information of the polypeptide backbone structure of COX2, involving pi-to-pi* transition related to the secondary structure changes. According to Figure 7 and Table 3, both peak 1 and peak 2 of COX2 had been quenched. […] Furthermore, the fluorescence intensity of peak 1 was higher than that of peak 2 in the spectra for COX2-SC2 complex (Table 3). It implies that the fluorescence quenching of COX2 by compound SC2 on peak 2 was more evident than on peak 1. We could draw a conclusion that the interaction of compound SC2 with COX2 induced the slight opening of the polypeptides of protein, thereafter changing the conformation of COX2. […] Comparison of Figure 7a with Figure 7c also implied that there was a blue shift of 5.5 nm for peak 1, and 4 nm for peak 2. […] These changes induced the increase in hydrophobicity of COX2, decrease in collisions between COX2 molecules and water, and increase in the quantum yield of COX2. […] Taken together, these combined results implicate the ability of compounds DB2, SC2 and YB2 to bind to COX2.
The fluorescence intensity of the system was measured with a 1.0 cm quartz cell. […] DB2, SC2 or YB2 stock solutions were prepared in singleton at 1.5 × 10^−3 mol∙L^−1 in PBS containing 0.1% DMSO. 2.0 mL COX2 solution was separately titrated by continuing additions of 10 μL compounds DB2, SC2 or YB2 solution). After incubation at 298 K or 310 K, fluorescence quenching spectra were recorded in the region 325-450 nm at a scan rate of 1200 nm∙min^−1. The local environment of Tyr and Trp residues was quite sensitive at 280 nm, so the excitation wavelength was set at this wavelength. Typically, 280 nm is also used to measure the changes in protein tertiary structure. The slit widths of emission and excitation were both fixed at 10 nm. To observe spectra behaviors of Tyr and Trp groups of COX2, the wavelength interval between the excitation and emission wavelengths (Δλ) was set as 15 nm and 60 nm, respectively. Three-dimensional fluorescence spectroscopy was obtained for an excitation range of 200–300 nm and an emission range of 325–400 nm. Appropriate buffer solutions, determined under the same operation conditions, were used as blanks. Each spectrum was recorded three times.

COX2 [2] = target: T1, COX2; experiment: Fluorescence resonance energy transfer between COX2 and compound; format: binding; details: for J (effective spectral overlap): COX2 emission vs compound absorption, each 5.0 × 10^−8 mol∙L^−1; for r (separation distance between COX2 and compound): κ^2 = 2/3, N = 1.336, φ = 0.15
Text: The transfer of energy from the protein donor to the ligand acceptor is generally seen in strong protein–ligand complexes. In addition to divulging the binding activities, assessments of the energy transfer efficiency can reveal the distance between the ligand and the ligand binding site on the protein [47]. According to Förster theory, the efficiency depends not only on the orientation and distance of the molecules but also on the extent of overlap between the donor emission and acceptor absorption. The distance between the donor and acceptor must be in the 2 to 8 nm range [47, 48]. The overlaps of fluorescence emission spectrum of COX2 with absorption spectrum of compounds DB2, SC2 or YB2 are presented in Figure 5g–i, respectively. The energy transfer efficiency (E) from donor to acceptor was calculated by a widely used method:(6) E=R06/R06+r^6=F0−F/F0 (7) R06=8.79×10^−25κ^2N^−4φJ (8) J=∑^ F(λ)ε(λ)λ^4Δλ/∑^F(λ)Δλ
Here, r is the separation distance between the donor (COX2) and acceptor (DB2, SC2 or YB2). R0 is the Förster critical distance when E = 50%. κ^2 is the orientation space factor. N is the refractive index of medium surrounding the fluorophores. φ is the fluorescence quantum yield of the donor. J is overlap integral of the donor fluorescence emission spectrum and acceptor absorption spectrum. F(λ) is the fluorescence intensity of the protein at the wavelength λ, ε(λ) is the molar absorption coefficient of acceptor at λ. Using the values of κ^2 = 2/3, N = 1.336 and φ = 0.15 [49], J and r were calculated (Table 2).
The fluorescence intensity of the system was measured with a 1.0 cm quartz cell. COX2 protein was dissolved in PBS for a final concentration of 6.0 × 10^−8 mol∙L^−1. DB2, SC2 or YB2 stock solutions were prepared in singleton at 1.5 × 10^−3 mol∙L^−1 in PBS containing 0.1% DMSO. 2.0 mL COX2 solution was separately titrated by continuing additions of 10 μL compounds DB2, SC2 or YB2 solution). After incubation at 298 K or 310 K, fluorescence quenching spectra were recorded in the region 325-450 nm at a scan rate of 1200 nm∙min^−1. The local environment of Tyr and Trp residues was quite sensitive at 280 nm, so the excitation wavelength was set at this wavelength. Typically, 280 nm is also used to measure the changes in protein tertiary structure. The slit widths of emission and excitation were both fixed at 10 nm. To observe spectra behaviors of Tyr and Trp groups of COX2, the wavelength interval between the excitation and emission wavelengths (Δλ) was set as 15 nm and 60 nm, respectively. Three-dimensional fluorescence spectroscopy was obtained for an excitation range of 200–300 nm and an emission range of 325–400 nm. Appropriate buffer solutions, determined under the same operation conditions, were used as blanks. Each spectrum was recorded three times.

Row | Peak Position λex/λem, peak 2 (COX2 [1]) | Relative Intensity (I), peak 2 (COX2 [1]) | Relative Intensity (I), peak 1 (COX2 [1]) | J (effective spectral overlap) (COX2 [2]) | r (separation distance between COX2 and compound) (COX2 [2]) | blue shift of peak 1 (COX2 [1]; COX2-compound vs COX2 alone) | blue shift of peak 2 (COX2 [1]; COX2-compound vs COX2 alone) | Structure (SMILES)
1 | 236/337 | 153 | 665 | 1.64 ×10^−13 cm^3∙L∙mol^−1 | 6.42 nm |  |  | CCCCc1ccc(C(=O)c2c(Br)cc(O)c(O)c2O)cc1 [DB2]
2 | 236/333 | 82.9 | 395 | 1.55 ×10^−13 cm^3∙L∙mol^−1 | 6.62 nm | 5.5 nm | 4 nm | CC(C)(C)c1ccc(C(=O)c2c(Cl)cc(O)c(O)c2O)cc1 [SC2]
3 | 236/336 | 103 | 472 | 1.72 ×10^−13 cm^3∙L∙mol^−1 | 6.47 nm |  |  | CC(C)Cc1ccc(C(=O)c2c(Br)cc(O)c(O)c2O)cc1 [YB2]
